Among the data in ChEMBL document CHEMBL4033690, “Potential anti-gout constituents as xanthine oxidase inhibitor from the fruits of Stauntonia brachyanthera” (Bioorg Med Chem, 2017) are IC50 values, retold here.

The target of the test is Xanthine dehydrogenase/oxidase (Homo sapiens, UniProt P47989). Briefly: Inhibition of xanthine oxidase (unknown origin) using xanthine as substrate preincubated for 15 mins followed by substrate addition by spectrophotometric method.
Chain of Xanthine dehydrogenase/oxidase (P47989 whole entry): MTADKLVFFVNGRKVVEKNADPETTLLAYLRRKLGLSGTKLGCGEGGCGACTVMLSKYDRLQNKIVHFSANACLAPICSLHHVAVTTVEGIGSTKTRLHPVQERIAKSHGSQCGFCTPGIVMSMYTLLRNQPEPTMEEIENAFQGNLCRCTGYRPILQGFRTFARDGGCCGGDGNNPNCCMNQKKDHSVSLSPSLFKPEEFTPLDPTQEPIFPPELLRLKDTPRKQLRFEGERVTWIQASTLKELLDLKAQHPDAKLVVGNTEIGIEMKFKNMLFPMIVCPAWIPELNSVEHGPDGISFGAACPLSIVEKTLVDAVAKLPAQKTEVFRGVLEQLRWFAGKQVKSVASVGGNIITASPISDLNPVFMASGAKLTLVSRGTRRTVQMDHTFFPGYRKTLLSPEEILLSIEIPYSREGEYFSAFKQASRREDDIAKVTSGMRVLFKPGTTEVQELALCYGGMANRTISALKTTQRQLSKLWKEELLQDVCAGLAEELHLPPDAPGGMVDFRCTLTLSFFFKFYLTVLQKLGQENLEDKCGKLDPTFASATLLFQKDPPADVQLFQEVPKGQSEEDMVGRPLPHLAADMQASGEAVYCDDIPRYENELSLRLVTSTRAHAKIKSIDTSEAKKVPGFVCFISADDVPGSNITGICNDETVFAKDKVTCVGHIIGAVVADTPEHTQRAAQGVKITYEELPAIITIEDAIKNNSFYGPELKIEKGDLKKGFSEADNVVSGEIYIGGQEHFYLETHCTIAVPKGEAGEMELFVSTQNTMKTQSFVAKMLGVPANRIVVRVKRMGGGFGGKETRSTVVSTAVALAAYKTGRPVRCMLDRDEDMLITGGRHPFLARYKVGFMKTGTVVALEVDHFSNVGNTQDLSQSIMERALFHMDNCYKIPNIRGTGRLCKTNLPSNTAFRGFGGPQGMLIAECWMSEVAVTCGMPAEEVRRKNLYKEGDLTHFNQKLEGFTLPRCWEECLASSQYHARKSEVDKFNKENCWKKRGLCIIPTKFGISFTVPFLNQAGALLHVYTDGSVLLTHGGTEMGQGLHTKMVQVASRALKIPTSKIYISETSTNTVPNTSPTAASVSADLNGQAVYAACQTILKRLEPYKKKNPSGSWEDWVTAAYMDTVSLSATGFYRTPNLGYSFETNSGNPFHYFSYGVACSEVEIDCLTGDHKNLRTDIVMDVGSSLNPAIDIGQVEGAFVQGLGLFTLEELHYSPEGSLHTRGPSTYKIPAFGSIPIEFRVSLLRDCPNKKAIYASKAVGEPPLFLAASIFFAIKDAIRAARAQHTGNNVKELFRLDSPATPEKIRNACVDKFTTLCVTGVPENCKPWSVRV

As to `COc1cc(C(=O)OC[C@@]2(O)CO[C@@H](O[C@H]3[C@H](Oc4ccc(C(=O)O)cc4OC)O[C@H](CO)[C@@H](O)[C@@H]3O)[C@@H]2O)ccc1O`, the IC50 (commonly the concentration at which inhibition is half-maximal) is > 100 µM.
Next, `O=c1c(O[C@@H]2O[C@H](CO)[C@@H](O)[C@H](O)[C@H]2O)c(-c2ccc(O)c(O)c2)oc2cc(O)cc(O)c12` [ISOQUERCETIN]: 1.6 µM.
Regarding `C=C1CC[C@]2(C(=O)O[C@@H]3O[C@H](CO[C@@H]4O[C@H](CO)[C@@H](O[C@@H]5O[C@@H](C)[C@H](O)[C@@H](O)[C@H]5O)[C@H](O)[C@H]4O)[C@@H](O)[C@H](O)[C@H]3O)CC[C@]3(C)C(=CC[C@@H]4[C@@]5(C)CC[C@H](O[C@@H]6O[C@H](CO)[C@@H](O)[C@H](O[C@@H]7OC[C@H](O)[C@H](O)[C@H]7O[C@@H]7O[C@@H](C)[C@H](O)[C@@H](O)[C@H]7O)[C@H]6O)C(C)(C)[C@@H]5CC[C@]43C)[C@@H]2C1`, the IC50 is > 100 µM.
